Data reported in patent US10697970B2, “S100A9 levels for predicting lenalidomide and erythropoietin responsiveness” (H. LEE MOFFITT CANCER CENTER AND RESEARCH INSTITUTE, INC., priority 2015, dated 2020).

Columns and labels:
HepG2 cells [1] = experiment: IL10 mRNA qPCR in HepG2 cells; format: cell-based, human
Description: RNA was isolated using the RNAeasy Mini Kit (Qiagen, Valencia, Calif., USA) followed by iScript cDNA synthesis (Bio-Rad, Hercules, Calif., USA) and amplification using iQ SYBR Green Supermix (Bio-Rad, Herculed, Calif., USA). The relative level of gene expression for each experimental sample was calculated by the ΔΔCt method. Untreated cells were the experimental control and the housekeeping gene GAPDH was the endogenous control.

MDS patients = conditions: cited from earlier work
NF-κB = experiment: Cytoplasmic and nuclear NF-κB western blotting in HepG2 cells; format: cell-based, human; conditions: HepG2, 24 h, 1 μM lenalidomide pre-incubation, then S100A9 or TNFα
Description: After treatment for 24 h, cells were harvested and lysed in 1×RIPA buffer supplemented with protease and phosphatase inhibitors for classical western blotting. For the nuclear extraction, cells were lysed in ice with buffer A, then pelleted. After removed supernatant (cytoplasmic fraction), pellets were lysed in ice with buffer B and pelleted (nuclear fraction) (Nuclear extraction kit, Abcam, Cambridge, USA). Lysates were pelleted and 50 μg of protein was resolved by SDS-PAGE and transferred to PVDF membranes. The membranes were blocked for 30 min in 5% non-fat dry milk solution in PBST (PBS with 0.1% Tween 20) and incubated with the indicated antibodies. Membranes were developed using ECL according to the manufacturer's protocol (GE Healthcare, Little Chalfont, UK). Densitometry analysis was performed using Image J Software.

HepG2 cells [2] = experiment: Epo elaboration by HepG2 cells (ELISA); format: cell-based, human
Description: HepG2 cells, acquired from American Type Culture Collection (ATCC, Manassas, Va.), were grown in EMEM supplemented with 10% FBS and 1% penicillin/streptomycin solution. Cells were maintained at 37° C. under 5% CO2.
(§1) Quantitation of human S100A9/MRP14 in patient serum and supernatant of the HepG2 cell line was performed using CircuLex S100A9/MRP14 ELISA Kit (MBL, Nagano, Japan). Quantitative measurement of human TNFα and IL-1β from serum patients and supernatant of HepG2 cell line were performed using Human IL-1β ELISA Kit and Human TNFα ELISA Kit (Life Technologies, Carlsbad, Calif., USA). Quantitation of human Epo in patient serum and HepG2 cell line supernatant was performed using Human Erythropoietin ELISA kit (Stemcell Technologies, Vancouver, BC, Canada). All samples were performed in duplicate.

MDS PBMC = experiment: LPS-induced TNFα production by MDS PBMC; format: cell-based, human; conditions: MDS PBMC (n=7), 1 μM lenalidomide 30 minutes prior to LPS (1 μg/ml), 24 h
[3] = system: PBMC isolated from non-del(5q) MDS patients; experiment: S100A9 production by PBMC from MDS patients (ELISA); format: cell-based, human; conditions: PBMC from MDS patients (n=7), 1 μM lenalidomide, 24 hours
Description: as §1
(§2) Serum samples used for ELISA analysis were collected from 4 centers (Taussig Cancer Institute in Cleveland; AOU Careggi, University of Firenze; Saint Louis hospital in Paris; H. Lee Moffitt Cancer Center in Tampa). Peripheral blood mononuclear cells (PBMC) were collected from patients seen at Moffitt Cancer Center All patients were consented on Institutional Review Boards, or equivalent, approved protocols in hematology clinics at each center, and from the Eastern Cooperative Oncology Group (ECOG) E2905 trial (NCT00843882). All routine clinical and biological data were available.

non-del(5q) MDS patients = experiment: Erythroid response to ESA or lenalidomide treatment by serum TNFα / S100A9 concentration; format: in vivo, human
From the text: as §2
Data are expressed as mean±standard error for continuous variables, or percentage of total for non-continuous variables. Spearman's correlation, Mann-Withney and Jonckheere-Terpstra tests were used for analysis of continuous variables. Chi-square test was used for analysis of non-continuous variables. Differences between the results of comparative tests were considered significant if the two-sided p-value was less than 0.05. All statistical analyses were performed using SPSS v.22 software (IBM SPSS Statistics).

[4] = lenalidomide or lenalidomide + Epo

## Nc1cccc2c1CN(C1CCC(=O)NC1=O)C2=O (centres unmarked) [lenalidomide, Lenalidomide]
HepG2 cells [1]; HepG2, 1 μM lenalidomide pre-incubation
  IL10 gene message following IL-1β treatment: no modulatory effect
HepG2 cells [1]; HepG2, 24 h, 1 μM lenalidomide 30 minutes prior to S100A9 (1 μg/ml) or TNFα (10 ng/ml)
  IL10 mRNA expression compared to S100A9 or TNFα treatment alone: significantly increased
MDS patients; MDS patients with del 5q
  response in patients with an interstitial deletion of Chromosome 5q: high rate of response
MDS patients; MDS patients without 5q deletions
  patients without 5q deletions who benefit from therapy: Approximately 25%
NF-κB
  NF-κB in nuclear fractions: significant reduction
HepG2 cells [2]; HepG2, 1 μM lenalidomide 30 minutes prior to IL-1β (10 ng/ml)
  effect on IL-1β-directed suppression of Epo elaboration: no effect
HepG2 cells [2]; HepG2, 1 μM lenalidomide 30 minutes prior to S100A9 (1 μg/ml)
  suppression of Epo production by S100A9 after lenalidomide pre-incubation: 65%
HepG2 cells [2]; HepG2, 1 μM lenalidomide 30 minutes prior to TNFα (10 ng/ml)
  suppression of Epo elaboration by TNFα after lenalidomide pre-incubation: 0%
MDS PBMC
  TNFα production induced by LPS: significantly reduced
[3]
  S100A9 elaboration: significant reduction
non-del(5q) MDS patients; [4]
  erythroid response rate, high (above the median) serum TNFα: 14%
  erythroid response rate, low (below the median) serum TNFα: 64%
non-del(5q) MDS patients; lenalidomide treatment
  erythroid response rate, high TNFα and low S100A9: 12%
  erythroid response rate, low TNFα and high S100A9 concentrations: 62%
